Results reported in patent publication US20110065760A1, “COMPOUNDS FOR THE INHIBITION OF ROTAMASES AND USE THEREOF” (Jerini AG, priority 2002, published 2011).
Read-outs that look alike come from different tables or passages of the source.

Experiments:
[1] = WST-1 cytotoxicity assay, HeLa; assay type: cell-based; conditions: human, HeLa cells (cervix carcinoma); WST-1, 48 h incubation; read-out: EC50 class, cytotoxic effect, CL-2 (HeLa)
Procedure: (§1) For this cytotoxic evaluation of the compounds the commercial available WST-1 assay (Roche) was used according to the manufacturer's instructions. The assay is based on the cleavage of the tetrazolium salt WST-1 by mitochondrial dehydrogenases found in viable cells. In general compounds were added to cells cultured in 96-well plates at 37° C. After 48 h of incubation 10 μl of WST-1 solution was added. The formazan dye was analyzed with an ELISA plate reader at (450 vs. 620) nm. CL-1: human acute myeloid leukemia, HL-60 CL-2: human cervix carcinoma, HeLa CL-3: human prostate carcinoma, PC-3 CL-4: human colon adenocarcinoma, Caco-2 CL-5: human breast adenocarcinoma, MCF-7

[2] = target: hPin1 (Homo sapiens, UniProt Q13526); experiment: protease-coupled PPIase assay, hPin1; assay type: biochemical; conditions: 6 nM hPin1, substrate Ac-Ala-Ala-Ser(PO3H2)-Pro-Arg-pNA, trypsin, pH 7.8, 6° C.; read-out: IC50 class, Target T-1 (hPin1)
Sequence of hPin1 (Q13526 whole entry): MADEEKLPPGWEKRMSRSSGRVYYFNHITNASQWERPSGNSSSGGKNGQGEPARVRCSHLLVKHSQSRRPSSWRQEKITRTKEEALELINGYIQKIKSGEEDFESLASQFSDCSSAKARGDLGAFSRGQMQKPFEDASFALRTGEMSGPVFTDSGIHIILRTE

[3] = target: LpCyp18 (Legionella pneumophila, UniProt Q5ZRZ4); experiment: biochemical; conditions: IC50 class, Target T-4 (LpCyp18)
Sequence of LpCyp18 (Q5ZRZ4 1-164): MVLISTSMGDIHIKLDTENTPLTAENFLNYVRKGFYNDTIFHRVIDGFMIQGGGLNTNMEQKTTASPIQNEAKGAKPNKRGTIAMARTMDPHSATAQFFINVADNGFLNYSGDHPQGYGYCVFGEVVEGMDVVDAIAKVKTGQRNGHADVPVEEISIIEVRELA

[4] = WST-1 cytotoxicity assay, PC-3; assay type: cell-based; conditions: human, PC-3 cells (prostate carcinoma); WST-1, 48 h incubation; read-out: EC50 class, cytotoxic effect, CL-3 (PC-3)
Procedure: as §1

[5] = target: cathepsin B (Homo sapiens, UniProt P07858); experiment: cathepsin B assay; assay type: biochemical; conditions: 0.2 μg/ml cathepsin B, 2 mM Z-Arg-Arg-pNA, pH 5.8, 30° C., 30 min incubation; read-out: IC50 class, Target T-8 (Cathepsin)
Procedure: (§2) In order to investigate the impact of some of the inventive compounds on the activity of key proteases the following assay was performed: Protease activities were measured spectrophotometrically at 30° C. according to Schomburg and Salzmann (Schomburg, B.; Salzmann M. GBF: Enzyme Handbook. Springer Verlag, Berlin Heidelberg, 1991) and Bergmeyer et al. (Bergmeyer, H. U.; Bergmeyer, J.; Graβl, M. Methods of Enzymatic Analysis, Vol. V Enzymes 3: Peptides, Proteinases and Their Inhibitors. pp 55-371, VCH, Weinheim, 1988). The release of 4-nitroaniline was determined at 390 nm with a Spectramax Plus UV/Vis spectrophotometer (Molecular Devices). The cathepsin B assay was performed in a reaction mixture containing 0.2 μg/ml cathepsin B, 2 mM Z-Arg-Arg-pNA in 88 mM KH2PO4, 12 mM Na2HPO4, 1.33 mM EDTA, 0.03% Brij 35 (pH 5.8). The trypsin assay was carried out in a reaction mixture containing 0.1 μg/ml trypsin and 120 μM Ac-Ala-Ala-Ser(PO3H2)-Pro-Arg-pNA in 35 mM HEPES (pH 7.8) and the papain assay in a mixture consisting of 16 μg/ml papain and 2 mM Bz-DL-Arg-pNA in 10 mM Na2HPO4, 2 mM L-Cys, 5 mM EDTA (pH 6.5). In general, reactions were started by addition of peptide substrate after a 30 min incubation of 1-100 μM effector with given concentrations of enzyme.

[6] = system: tumor cell lines (HL-60, HeLa, PC-3, Caco-2, MCF-7); experiment: WST-1 cytotoxicity assay, tumor cell lines (panel statement); assay type: cell-based, human; conditions: WST-1, 48 h; table 4
Procedure: as §1

[7] = target: T1, Trypsin (UniProt P00760); experiment: trypsin assay; assay type: biochemical; conditions: 0.1 μg/ml trypsin, 120 μM Ac-Ala-Ala-Ser(PO3H2)-Pro-Arg-pNA, pH 7.8, 30° C., 30 min incubation; read-out: IC50 class, Target T-7 (Trypsin)
T1 sequence (P00760 1-246): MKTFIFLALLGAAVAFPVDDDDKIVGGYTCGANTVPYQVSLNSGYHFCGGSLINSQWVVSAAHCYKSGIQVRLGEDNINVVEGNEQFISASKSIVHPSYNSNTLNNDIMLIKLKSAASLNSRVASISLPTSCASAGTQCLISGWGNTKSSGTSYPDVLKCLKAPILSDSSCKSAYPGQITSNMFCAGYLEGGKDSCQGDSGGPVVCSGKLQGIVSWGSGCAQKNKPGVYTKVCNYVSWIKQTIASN
Procedure: as §2

[8] = target: hFKBP12 (Homo sapiens, UniProt P62942); experiment: protease-coupled PPIase assay, hFKBP12; assay type: biochemical; conditions: 20 nM hFKBP12, substrate Suc-Ala-Phe-Pro-Phe-pNA, chymotrypsin, pH 7.8, 6° C.; read-out: IC50 class, Target T-2 (hFKBP12)
Sequence of hFKBP12 (P62942 whole entry): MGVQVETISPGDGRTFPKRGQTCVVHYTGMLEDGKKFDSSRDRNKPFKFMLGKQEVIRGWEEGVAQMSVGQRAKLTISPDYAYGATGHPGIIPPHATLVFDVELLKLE

[9] = WST-1 cytotoxicity assay, Caco-2; assay type: cell-based; conditions: human, Caco-2 cells (colon adenocarcinoma); WST-1, 48 h incubation; read-out: EC50 class, cytotoxic effect, CL-4 (Caco-2)
Procedure: as §1

[10] = target: hCyp18 (Homo sapiens, UniProt P62937); experiment: protease-coupled PPIase assay, hCyp18; assay type: biochemical; conditions: 10 nM hCyp18, substrate Suc-Ala-Phe-Pro-Phe-pNA, chymotrypsin, pH 7.8, 6° C.; read-out: IC50 class, Target T-3 (hCyp18)
Sequence of hCyp18 (P62937 whole entry): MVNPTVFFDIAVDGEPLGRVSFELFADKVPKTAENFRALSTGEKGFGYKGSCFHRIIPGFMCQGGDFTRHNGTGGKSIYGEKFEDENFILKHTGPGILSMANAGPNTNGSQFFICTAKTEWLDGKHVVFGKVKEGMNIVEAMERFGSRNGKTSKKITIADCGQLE

[11] = target: EcParvulin (Escherichia coli, UniProt P0A9L5); experiment: protease-coupled PPIase assay, EcParvulin; assay type: biochemical
Sequence of EcParvulin (P0A9L5 whole entry): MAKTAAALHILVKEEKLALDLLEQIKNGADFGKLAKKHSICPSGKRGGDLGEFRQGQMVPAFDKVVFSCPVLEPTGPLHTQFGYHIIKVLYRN

[12] = target: T2, Papain (Carica papaya, UniProt P00784); experiment: papain assay; assay type: biochemical; conditions: 16 μg/ml papain, 2 mM Bz-DL-Arg-pNA, pH 6.5, 30° C., 30 min incubation; read-out: IC50 class, Target T-6 (Papain)
T2 sequence (P00784 134-345): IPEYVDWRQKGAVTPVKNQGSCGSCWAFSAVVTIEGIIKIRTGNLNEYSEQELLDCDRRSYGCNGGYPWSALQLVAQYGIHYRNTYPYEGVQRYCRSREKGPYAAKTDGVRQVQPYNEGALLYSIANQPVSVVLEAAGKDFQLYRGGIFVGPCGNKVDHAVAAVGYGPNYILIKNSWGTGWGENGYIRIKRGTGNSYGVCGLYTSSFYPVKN
Procedure: as §2

[13] = WST-1 cytotoxicity assay, HL-60; assay type: cell-based; conditions: human, HL-60 cells (acute myeloid leukemia); WST-1, 48 h incubation; read-out: EC50 class, cytotoxic effect, CL-1 (HL-60)
How it was run: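 Human tumour cell lines in culture were exposed to compounds at 37° C for 48 h, then given WST-1. Viability was read as formazan absorbance at (450 vs. 620) nm.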

[14] = system: cyclin D1 in MCF-7 and HeLa cells; experiment: Cyclin D1 down regulation (western blot marker analysis); assay type: cell-based, human
Procedure: MCF-7 (5×10^5 cells/well) and HeLa cells (1.5×10^5 cells/well) were seeded in 6-well plates and incubated at 37° C. over night. Compounds or DMSO (final solvent concentration 0.1%) were added to the cells and incubated for different times as indicated. Subsequently, cells were lysed in RIPA buffer for 30 min on ice and centrifuged for 20 min at 4° C. After addition of electrophoresis sample buffer (4×) and 50 mM DTT to the supernatant, samples were boiled for 4 min at 95° C. Samples (equivalent to 2×10^5 cells/well) were run on a 15% SDS gel followed by blotting onto PVDF membrane.
The membrane was blocked for 1 h in 10 mM Tris (pH 7.5), 100 mM NaCl, 0.1% Tween-20 and 5% non-fat dry milk (blocking buffer) and incubated for 1 h with mouse anti-hCyclin D1 monoclonal antibody (clone DCS-6, BD Biosciences) diluted to 1 μg/ml in blocking buffer. Blots were washed 3×10 min with 10 mM Tris (pH 7.5), 100 mM NaCl, 0.1% Tween-20 (washing buffer) and incubated with 0.7 μg/ml peroxidase-conjugated sheep anti-mouse IgG (Sigma) in blocking buffer for 1 h. After washing 3×10 min with washing buffer, the plot was developed with the ECL+ detection kit (Amersham Biosciences).

[15] = WST-1 cytotoxicity assay, MCF-7; assay type: cell-based; conditions: human, MCF-7 cells (breast adenocarcinoma); WST-1, 48 h incubation; read-out: EC50 class, cytotoxic effect, CL-5 (MCF-7)
Procedure: as §1

[16] = system: Hela cells; experiment: DAPI staining; assay type: cell-based, human; conditions: FIG. 3
Procedure: Hela cells grown on poly-L-Lys-coated coverslips were fixed with 2% paraformaldehyde/MeOH.
Cellular DNA was stained with DAPI staining buffer (100 mM Tris (pH 7.4), 150 mM NaCl, 1 mM CaCl2, 0.5 mM MgCl2, 0.1% nonidet P-40, 1 μg/ml DAPI (Molecular Probes)). All the steps were performed at room temperature, and cells were washed two times with PBS after each step. Finally, cells were mounted in 80% glycerol/PBS.

SMILES | EC50 at 48 h [1] [µM] | IC50 [2] [µM] | IC50 [3] [µM] | EC50 at 48 h [4] [µM] | IC50 [5] [µM] | cytotoxic effect on the tumor cell lines tested [6] | IC50 [7] [µM] | IC50 [8] [µM] | EC50 at 48 h [9] [µM] | IC50 [10] [µM] | IC50 [11] [µM] | IC50 [12] [µM] | EC50 at 48 h [13] [µM] | cyclin D1 down regulation [14] | EC50 at 48 h [15] [µM] | induction of apoptosis (DAPI staining, fluorescence microscopy) [16] | IC50 ([11]; 20 nM EcParvulin, substrate Suc-Ala-Phe-Pro-Phe-pNA, chymotrypsin, pH 7.8, 6° C., read-out: IC50 class, Target T-5 (EcParv)) [µM]
CC(C)(C)CC(C)(C)NC(=O)Nc1cc(Cl)c(O)c(Cl)c1 [Compound 703] | 10 to 50 | < 1 | > 100 | 10 to 50 | > 100 | particular relevance | 50 to 100 | > 100 | 10 to 50 | > 100 | 1 to 10 | > 100 | 10 to 50 | – | – | – | –
Oc1c(NCc2ccccc2Sc2ccc(Cl)cc2)ccc(F)c1F [Compound 399] | < 10 | < 1 | 50 to 100 | < 10 | 10 to 50 | particular relevance | – | > 100 | – | 50 to 100 | 10 to 50 | > 100 | < 10 | particular relevance | < 10 | induce apoptosis | –
CC(C)=CC(=O)Nc1cc(Cl)c(O)c(Cl)c1 [Compound 1296] | – | 1 to 10 | > 100 | – | > 100 | – | > 100 | > 100 | – | 10 to 50 | 10 to 50 | > 100 | 50 to 100 | – | – | – | –
Cc1c(Cl)cc(NC(=S)Nc2ccccc2C(F)(F)F)c(O)c1Cl [Compound 261] | 10 to 50 | – | – | 10 to 50 | – | – | – | – | 10 to 50 | – | – | – | < 10 | – | 10 to 50 | – | –
CC(C)(C)CC(C)(C)NC(=O)Nc1cc(Cl)cc(Cl)c1O [Compound 30] | – | 1 to 10 | > 100 | – | – | – | – | > 100 | < 10 | > 100 | – | – | < 10 | particular relevance | – | induce apoptosis | > 100
Cc1c(Cl)cc(NC(=O)NCCCCCCNC(=O)Nc2cc(Cl)c(C)c(Cl)c2O)c(O)c1Cl [Compound 673] | – | < 1 | – | – | – | particular relevance | – | – | – | – | – | – | – | particular relevance | < 10 | – | –
CC(C)NC(=S)Nc1cc(-c2nc3ccccc3s2)cc(Cl)c1O [Compound 639] | – | < 1 | – | – | – | – | – | – | – | – | – | – | < 10 | particular relevance | 10 to 50 | – | –
CC(CC(=O)Nc1cc(Cl)c(O)c(Cl)c1)CC(C)(C)C (centres unmarked) [Compound 1273] | 50 to 100 | < 1 | > 100 | 10 to 50 | > 100 | particular relevance | > 100 | > 100 | 10 to 50 | > 100 | 1 to 10 | > 100 | 10 to 50 | – | – | – | –
